How the values were obtained:
human orexin-2 receptor = human orexin-2 receptor (Homo sapiens (Human), UniProt O43614); assay: FLIPR Ca2+ Flux Assay, hOX2R; format: cell-based; details: CHO cells expressing the human orexin-2 receptor; agonist 70 pM Ala-6,12 orexin-A
Protocol: In a typical experiment the OX1 and OX2 receptor antagonistic activity of the compounds of the present invention was determined in accordance with the following experimental method. For intracellular calcium measurements, Chinese hamster ovary (CHO) cells expressing the rat orexin-1 receptor or the human orexin-2 receptor, are grown in Iscove's modified DMEM containing 2 mM L-glutamine, […], 1% hypoxanthine-thymidine supplement, 100 U/ml penicillin, 100 μg/ml streptomycin and 10% heat-inactivated fetal calf serum (FCS). The cells are seeded at 20,000 cells/well into Becton-Dickinson black 384-well clear bottom sterile plates coated with poly-D-lysine. All reagents were from GIBCO-Invitrogen Corp. The seeded plates are incubated overnight at 37° C. and 5% CO2. Ala-6,12 human orexin-A as the agonist is prepared as a 1 mM stock solution in 1% bovine serum albumin (BSA) and diluted in assay buffer (HBSS containing 20 mM HEPES, 0.1% BSA and 2.5 mM probenecid, pH7.4) for use in the assay at a final concentration of 70 pM. Test compounds are prepared as 10 mM stock solution in DMSO, then diluted in 384-well plates, first in DMSO, then assay buffer. On the day of the assay, cells are washed 3 times with 100 μl assay buffer and then incubated for 60 min (37° C., 5% CO2) in 60 μl assay buffer containing 1 μM Fluo-4AM ester, 0.02% pluronic acid, and 1% BSA. The dye loading solution is then aspirated and cells are washed 3 times with 100 μl assay buffer. 30 μl of that same buffer is left in each well. Within the Fluorescent Imaging Plate Reader (FLIPR, Molecular Devices), test compounds are added to the plate in a volume of 25 μl, incubated for 5 min and finally 25 μl of agonist is added. Fluorescence is measured for each well at 1 second intervals for 5 minutes and the height of each fluorescence peak is compared to the height of the fluorescence peak induced by 70 pM Ala-6,12 orexin-A with buffer in place of antagonist. For each antagonist, IC50 value (the concentration of compound needed to inhibit 50% of the agonist response) is determined Alternatively, compound potency can be assessed by a radioligand binding assay (described in Bergman et. al. Bioorg. Med. Chem. Lett. 2008, 18, 1425-1430) in which the inhibition constant (Ki) is determined in membranes prepared from CHO cells expressing either the OX1 or OX2 receptor. The intrinsic orexin receptor antagonist activity of a compound which may be used in the present invention may be determined by these assays.

hOX1R = hOX1R (Homo sapiens, UniProt O43613); assay: FLIPR Ca2+ Flux Assay, hOX1R; format: cell-based; details: CHO cells expressing orexin-1 receptor; agonist 70 pM Ala-6,12 orexin-A

Sequence of human orexin-2 receptor (O43614 whole entry): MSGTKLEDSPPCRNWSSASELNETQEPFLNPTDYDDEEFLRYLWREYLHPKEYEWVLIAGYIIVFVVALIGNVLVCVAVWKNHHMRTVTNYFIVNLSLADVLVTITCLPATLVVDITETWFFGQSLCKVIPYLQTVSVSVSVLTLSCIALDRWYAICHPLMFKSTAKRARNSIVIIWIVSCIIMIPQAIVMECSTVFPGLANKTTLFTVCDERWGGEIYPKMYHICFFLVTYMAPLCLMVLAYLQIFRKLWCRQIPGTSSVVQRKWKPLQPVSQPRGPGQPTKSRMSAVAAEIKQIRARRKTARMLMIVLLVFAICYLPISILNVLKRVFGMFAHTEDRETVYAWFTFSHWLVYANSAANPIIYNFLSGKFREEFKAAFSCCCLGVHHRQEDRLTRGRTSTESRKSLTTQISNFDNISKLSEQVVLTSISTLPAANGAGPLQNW

Structure (SMILES) | IC50 (human orexin-2 receptor) [nM] | IC50 (hOX1R) [nM]
CCOC(=O)c1c(C)ccnc1O[C@@H]1CC[C@@H](C)N(C(=O)c2ccccc2-n2nccn2)C1 [Example 1, Ethyl 4-methyl-2-{[(3R,6R)-6-methyl-1-{[2-(2H-1,2,3-triazol-2-yl)phenyl]carbonyl}piperidin-3-yl]oxy}pyridine-3-carboxylate] | 8.3 | 79
COC(=O)c1c(C)ccnc1O[C@@H]1CC[C@@H](C)N(C(=O)c2ccccc2-n2nccn2)C1 [Example 2, methyl 4-methy1-2-{[(3R,6R)-6-methyl-1-{[2-(2H-1,2,3-triazol-2-yl)phenyl]carbonyl}piperidin-3-yl]oxy}pyridine-3-carboxylate] | 17.4 | 86.2
COC(=O)c1c(SC)ccnc1O[C@@H]1CC[C@@H](C)N(C(=O)c2ccccc2-n2nccn2)C1 [Example 3, methyl 4-(methylsulfanyl)-2-{[(3R,6R)-6-methyl-1-{[2-(2H-1,2,3-triazol-2-yl)phenyl]carbonyl}-piperidin-3-yl]oxy}pyridine-3-carboxylate] | 10 | 618
COC(=O)c1c(SC)ccnc1O[C@@H]1CC[C@@H](C)N(C(=O)c2ccccc2-c2ncccn2)C1 [Example 4, Methyl 2-({(3R,6R)-6-methyl-1-{(2-pyrimidin-2ylphenyl)carbonyl}piperidin-3yl}oxy)-4-(methylsulfanyl)pyridine-3-carboxylate] | 28.3 | 554
COC(=O)c1c(SC)ccnc1O[C@@H]1CC[C@@H](C)N(C(=O)c2cc(F)ccc2-c2ncccn2)C1 [Example 5, methyl 2-({(3R,6R)-1-[(5-fluoro-2-pyrimidin-2-ylphenyl)carbonyl]-6-methylpiperidin-3-yl}oxy)-4-(methylsulfanyl)pyridine-3-carboxylate] | 72.9 | 880
COC(=O)c1c(SC)ccnc1O[C@@H]1CC[C@@H](C)N(C(=O)c2ccc(F)cc2-c2ncccn2)C1 [Example 6, methyl 2-({(3R,6R)-1-[(4-fluoro-2-pyrimidin-2-ylphenyl)carbonyl]-6-methylpiperidin-3-yl}oxy)-4-(methylsulfanyl)pyridine-3-carboxylate] | 31.6 | 888
COC(=O)c1c(SC)ccnc1O[C@@H]1CC[C@@H](C)N(C(=O)c2cccc(F)c2-c2ncccn2)C1 [Example 7, methyl 2-({(3R,6R)-1-[(3-fluoro-2-pyrimidin-2-ylphenyl)carbonyl]-6-methylpiperidin-3-yl}oxy)-4-(methylsulfanyl)pyridine-3-carboxylate] | 37.8 | 1030
COC(=O)c1c(N2CCC2)ccnc1O[C@@H]1CC[C@@H](C)N(C(=O)c2ccccc2-n2nccn2)C1 [Example 8, Methyl 4-azetidin-1-yl-2-{[(3R,6R)-6-methyl-1-{[2-(2H-1,2,3-triazol-2-yl)phenyl]carbonyl}piperidin-3-yl]oxy}pyridine-3-carboxylate] | 33 | 743
COC(=O)c1c(N2CCN(C)CC2)ccnc1O[C@@H]1CC[C@@H](C)N(C(=O)c2ccccc2-n2nccn2)C1 [Example 9, methyl 4-(4-methylpiperazin-1-yl)-2-{[(3R,6R)-6-methyl-1-{[2-(2H-1,2,3-triazol-2-yl)phenyl]carbonyl}-piperidin-3-yl]oxy}pyridine-3-carboxylate] | 1530 | 10000
CCc1ccnc(O[C@@H]2CC[C@@H](C)N(C(=O)c3ccccc3-n3nccn3)C2)c1C(=O)OC [Example 10, Methyl 4-ethyl-2-{[(3R,6R)-6-methyl-1-{[2-(2H-1,2,3-triazol-2-yl)phenyl]carbonyl}piperidin-3-yl]oxy}pyridine-3-carboxylate] | 21.1 | 74.9
COC(=O)c1c(C(C)(C)C)ccnc1O[C@@H]1CC[C@@H](C)N(C(=O)c2ccccc2-n2nccn2)C1 [Example 11] | 1010 | 2050
COC(=O)c1c(C(C)C)ccnc1O[C@@H]1CC[C@@H](C)N(C(=O)c2ccccc2-n2nccn2)C1 [Example 12, methyl 4-(1-methylethyl)-2-{[(3R,6R)-6-methyl-1-{[2-(2H-1,2,3-triazol-2-yl)phenyl]carbonyl}-piperidin-3-yl]oxy}pyridine-3-carboxylate] | 5.46 | 80
COC(=O)c1c(C2CC2)ccnc1O[C@@H]1CC[C@@H](C)N(C(=O)c2ccccc2-n2nccn2)C1 [Example 13, methyl 4-cyclopropyl-2-{[(3R,6R)-6-methyl-1-{[2-(2H-1,2,3-triazol-2-yl)phenyl]carbonyl}piperidin-3-yl]oxy}pyridine-3-carboxylate] | 530 | 803
COC(=O)c1c(C2CCC2)ccnc1O[C@@H]1CC[C@@H](C)N(C(=O)c2ccccc2-n2nccn2)C1 [Example 14, methyl 4-cyclobutyl-2-{[(3R,6R)-6-methyl-1-{[2-(2H-1,2,3-triazol-2-yl)phenyl]carbonyl}piperidin-3-yl]oxy}pyridine-3-carboxylate] | 272 | 5580
COC(=O)c1c(C)cccc1O[C@@H]1CC[C@@H](C)N(C(=O)c2ccccc2-n2nccn2)C1 [Example 15, methyl 2-methyl-6-{[(3R,6R)-6-methyl-1-{[2-(2H-1,2,3-triazol-2-yl)phenyl]carbonyl}piperidin-3-yl]oxy}benzoate] | 36.2 | 1930
COC(=O)c1c(O[C@@H]2CC[C@@H](C)N(C(=O)c3ccccc3-n3nccn3)C2)cccc1C(C)C [Example 16, methyl 2-(1-methylethyl)-6-{[(3R,6R)-6-methyl-1-{[2-(2H-1,2,3-triazol-2-yl)phenyl]carbonyl}-piperidin-3-yl]oxy}benzoate] | 68.8 | 1460
CCOC(=O)c1c(CC)ccnc1O[C@@H]1CC[C@@H](C)N(C(=O)c2ccccc2-n2nccn2)C1 [Example 17, Ethyl 4-ethyl-2-{[(3R,6R)-6-methyl-1-{[2-(2H-1,2,3-triazol-2-yl)phenyl]carbonyl}piperidin-3-yl]oxy}pyridine-3-carboxylate] | 40.4 | 172

From patent US9765057B2, “3-ester-4 substituted orexin receptor antagonists” (MERCK SHARP & DOHME CORP., priority 2012, dated 2017)
